In the supplement of paper PMC10307832:

What was measured:
Assay in all cases: relative viability (nuclei count vs DMSO), 5 days (fraction); higher = more cells survive
Venetoclax + Bortezomib = compound: CC1(C)CCC(CN2CCN(c3ccc(C(=O)NS(=O)(=O)c4ccc(NCC5CCOCC5)c([N+](=O)[O-])c4)c(Oc4cnc5[nH]ccc5c4)c3)CC2)=C(c2ccc(Cl)cc2)C1 [Venetoclax] + CC(C)C[C@H](NC(=O)[C@H](Cc1ccccc1)NC(=O)c1cnccn1)B(O)O [Bortezomib] (partner 0.002 µM)
Method in brief: (§1)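 Medians of duplicate plates are given as relative viability. That measure is the nuclei count in treated wells divided by the count in vehicle wells. Counts were taken on 4× images of lung cancer cell lines in 1536-well plates, 5 days after pin-tool dosing the day after seeding with one drug alone or a fixed anchor-drug dose plus five library-drug doses (not always all listed) in √10 steps.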

Venetoclax + Crizotinib = compound: CC1(C)CCC(CN2CCN(c3ccc(C(=O)NS(=O)(=O)c4ccc(NCC5CCOCC5)c([N+](=O)[O-])c4)c(Oc4cnc5[nH]ccc5c4)c3)CC2)=C(c2ccc(Cl)cc2)C1 [Venetoclax] + C[C@@H](Oc1cc(-c2cnn(C3CCNCC3)c2)cnc1N)c1c(Cl)ccc(F)c1Cl [Crizotinib] (partner 1 µM)
Method in brief: as §1

Selumetinib + Bortezomib = compound: Cn1cnc2c(F)c(Nc3ccc(Br)cc3Cl)c(C(=O)NOCCO)cc21 [Selumetinib] + CC(C)C[C@H](NC(=O)[C@H](Cc1ccccc1)NC(=O)c1cnccn1)B(O)O [Bortezomib] (partner 0.002 µM)
Method in brief: as §1

Selumetinib + AZD7762 = compound: Cn1cnc2c(F)c(Nc3ccc(Br)cc3Cl)c(C(=O)NOCCO)cc21 [Selumetinib] + NC(=O)Nc1cc(-c2cccc(F)c2)sc1C(=O)N[C@H]1CCCNC1 [AZD7762] (partner 0.2 µM)
Method in brief: as §1

Cell Line	relative viability (Venetoclax + Bortezomib; first compound 0.01 µM)	relative viability (Venetoclax + Bortezomib; first compound 0.03162 µM)	relative viability (Venetoclax + Bortezomib; first compound 0.1 µM)	relative viability (Venetoclax + Bortezomib; first compound 0.3162 µM)	relative viability (Venetoclax + Bortezomib; first compound 1 µM)	relative viability (Venetoclax + Crizotinib; first compound 0.01 µM)	relative viability (Venetoclax + Crizotinib; first compound 0.03162 µM)	relative viability (Venetoclax + Crizotinib; first compound 0.1 µM)	relative viability (Venetoclax + Crizotinib; first compound 0.3162 µM)	relative viability (Venetoclax + Crizotinib; first compound 1 µM)	relative viability (Selumetinib + Bortezomib; first compound 0.02 µM)	relative viability (Selumetinib + Bortezomib; first compound 0.06325 µM)	relative viability (Selumetinib + Bortezomib; first compound 0.2 µM)	relative viability (Selumetinib + Bortezomib; first compound 0.6325 µM)	relative viability (Selumetinib + AZD7762; first compound 0.02 µM)	relative viability (Selumetinib + AZD7762; first compound 0.06325 µM)	relative viability (Selumetinib + AZD7762; first compound 0.2 µM)	relative viability (Selumetinib + AZD7762; first compound 0.6325 µM)
NCI-H2009	1.09	0.951	1.03	0.991	1.02	0.99	1.01	0.954	1.01	0.968	0.788	0.591	0.538	0.362	–	–	–	–
NCI-H1944	–	–	–	–	–	1.18	1.17	0.791	1.04	1.12	–	–	–	–	0.448	0.438	0.401	0.427
NCI-H1299	1.05	1.02	0.979	0.999	0.98	0.974	0.998	0.937	0.912	0.907	1.08	1.09	1.07	0.977	–	–	–	–
EPLC-272H	–	0.957	0.852	0.872	0.947	–	0.682	0.872	1.11	0.897	0.966	0.864	0.779	0.567	0.24	0.19	0.281	0.476
NCI-H3122	1.06	0.968	1.01	0.985	1.02	0.306	0.258	0.269	0.247	0.276	0.896	0.811	0.779	0.78	0.886	0.808	0.785	0.552
NCI-H2085	0.976	1.14	1.07	0.923	0.946	0.815	0.903	0.765	1.02	0.745	1	0.947	0.926	0.916	0.914	0.906	0.864	0.722
HCC-366	0.854	1.05	1.01	0.994	0.984	0.502	0.609	0.621	0.505	0.388	1.07	0.935	0.864	0.761	0.27	0.324	0.253	0.166
HCC-78	0.523	0.583	0.482	0.525	0.477	0.315	0.338	0.307	0.393	0.362	0.468	0.359	0.392	0.425	0.576	0.581	0.526	0.477
COR-L23	0.91	1.06	0.982	0.98	0.896	0.631	0.696	0.601	0.778	0.543	1.27	0.939	1.06	0.968	–	–	–	–
HCC-827	1.04	1.06	1.08	1.11	1.01	0.982	0.923	0.924	0.94	0.837	1.22	1.03	1.02	0.975	0.2	0.195	0.194	0.209
NCI-H1437	0.451	0.572	0.475	0.42	0.492	0.851	0.941	0.949	0.899	0.864	0.486	0.378	0.316	0.276	1.03	0.941	0.834	0.603
NCI-H2228	1.04	0.99	0.972	1.21	1.19	0.432	0.519	0.538	0.427	0.544	0.923	0.989	0.75	0.584	–	–	–	–
NCI-H1793	–	–	–	–	–	–	–	–	–	–	–	–	–	–	0.408	0.394	0.406	0.297
COR-L 105	0.867	0.902	0.751	0.777	0.691	0.717	0.638	0.669	0.738	0.698	0.813	0.477	0.609	0.567	–	–	–	–
NCI-H1563	0.792	0.896	0.827	0.944	0.78	0.872	0.878	0.884	0.996	0.907	0.804	0.68	0.726	0.786	–	–	–	–
NCI-H2023	0.964	1	1.03	1.01	0.853	0.541	0.737	0.721	0.552	0.53	0.899	0.785	0.895	0.896	–	–	–	–
IA-LM	0.745	0.701	0.959	0.698	0.823	0.727	0.709	0.584	0.848	0.708	0.742	0.497	0.304	0.257	–	–	–	–
NCI-H1650	0.217	0.218	–	0.205	0.184	0.831	0.986	–	0.74	0.842	0.199	0.172	0.215	0.222	–	–	–	–
NCI-H1648	–	–	–	–	–	–	–	–	–	–	–	–	–	–	–	0.737	0.733	0.67
A549	–	–	–	–	–	0.707	0.668	0.886	0.649	0.61	–	–	–	–	–	–	–	–
NCI-H522	–	–	–	–	–	–	–	–	–	–	–	–	–	–	0.728	0.781	0.842	0.828
NCI-H2170	–	–	–	–	–	1.07	1.23	1.12	1.15	1.13	–	–	–	–	0.874	0.88	0.711	0.838
SW 900	–	–	–	–	–	–	–	–	–	–	–	–	–	–	0.59	0.636	0.611	0.553
NCI-H1395	–	–	–	–	–	–	–	–	–	–	–	–	–	–	0.389	0.38	0.391	0.355
NCI-H358	–	–	–	–	–	0.577	0.609	0.581	0.837	0.63	–	–	–	–	0.374	0.349	0.385	0.367
EBC-1	0.409	0.604	0.609	0.511	0.481	0.213	0.18	0.207	0.211	0.146	0.759	0.625	0.578	0.304	–	–	–	–
